The results in this text go back to PMC4977651, “Molecular features of biguanides required for targeting of mitochondrial respiratory complex I and activation of AMP-kinase” (BMC Biology, 2016).

Each structure is given as a SMILES string. pIC50: −log10 of the molar value. Values joined by “and” are separate entries in the source; they are usually repeats but may differ in a detail not shown here. Identical values can stand only once.

The test system of one assay is mouse heart mitochondria. Kind of assay: ADP-stimulated rotenone-sensitive OCR in isolated mouse heart mitochondria. The format is biochemical. Details: rotenone sensitive OCR after ADP stimulation, individual replicates / rotenone sensitive OCR after ADP stimulation, average / rotenone sensitive OCR after 15 mins, average: unit not given here. On the procedure:
Complex I and mitochondrial membranes were prepared from Bos taurus (bovine) heart. Intact mitochondria were isolated from rat liver and mouse heart and liver. Membranes were prepared from mouse heart mitochondria by 5 s bursts of sonication at 4 °C and collected by centrifugation (75,000 × g, 1 h).
Isolated mitochondria were monitored using a Seahorse XF96 extracellular flux analyzer at 32 °C. Mouse heart mitochondria, and mouse and rat liver mitochondria were plated into XF96 plates at 4 and 16–20 μg per well, respectively, in 220 mM mannitol, 70 mM sucrose, 10 mM KH2PO4, 5 mM MgCl2, 1 mM EGTA, 0.2 % fatty acid-free BSA, and 2 mM HEPES (pH 7.4 at 37 °C) with 10 mM glutamate and 10 mM malate and adhered by centrifugation (2000 × g, 20 min, 4 °C). The medium was supplemented with a further 5 mM glutamate and 5 mM malate and the mitochondria incubated for 15 min. Then two baseline readings were taken before the biguanides were added at IC50/5. […] Rotenone (2 μM) was added at the end of the experiment. Data from wells with failed port injections were excluded from the analyses. The RCR values (state III versus state IV respiration) were 3.4, 4.8, and 4.6 for mouse heart, rat liver, and mouse liver, respectively.

The test system of the next assay is 143B cells. In words: Rotenone-sensitive oxygen consumption rate in intact 143B cells. The format is cell-based, human. On the procedure: 143B (CRL-8303 from ATCC), HepG2 (85011430 from The Health Protection Agency), and MDBK (CCL-22 from ATCC) cells were grown on Dulbecco’s modified Eagle’s medium (DMEM) supplemented with 10 % fetal bovine serum (FBS, Thermo Fisher Scientific) at 37 °C in 5 % CO2. All cells were confirmed as negative for mycoplasma.
Oxygen consumption rates (OCRs) were measured using a Seahorse XF96 extracellular flux analyzer at 37 °C. For intact cell measurements, 1.4 × 10^4 143B, HepG2, or MDBK cells were plated (per well) in DMEM containing 10 % FBS into Seahorse Bioscience Inc. XF96 plates and incubated for ~12 h at 37 °C in 5 % CO2. Then, the medium was exchanged for assay buffer containing DMEM, 4.5 g L^−1 glucose, 1 mM pyruvate, 32 mM NaCl, 2 mM GlutaMAX, 15 mg L^−1 phenol red, and 20 mM HEPES (pH 7.4 at 37 °C) and the cells placed in a CO2-free incubator at 37 °C for 30 min. Basal oxygen consumption rates were established before the addition of biguanides at one-tenth of their IC50 (IC50/10), and followed for ~ 6 h before the addition of rotenone (2 μM).
(§1) Rotenone-sensitive OCRs were calculated by subtracting the rotenone-insensitive rates (determined at the end of the experiment). OCRs were normalized by dividing by the OCR recorded immediately prior to the addition of biguanide. For rate of uptake calculations, the OCRs at time points after biguanide addition were divided by the OCRs at the same time points in control experiments. Data from wells with failed port injections were excluded from the analyses. The respiratory control ratio (RCR) values (state III versus state IV respiration) were ~11 and ~6 for permeabilized MDBK and 143B cells, respectively.

For another assay, the system named is permeabilized 143B cells. In words: ADP-stimulated rotenone-sensitive OCR in permeabilized 143B cells. The format is cell-based, human. Details: rotenone sensitive OCR after ADP stimulation, individual replicates / rotenone sensitive OCR after ADP stimulation, average: unit not given here. The note with it: 143B permeabilised cells. On the procedure: For permeabilized cell experiments, cells were seeded into XF96 plates at 0.9–1.1 × 10^4 per well and incubated for 48 h at 37 °C in 5 % CO2. Then, the growth medium was exchanged for assay buffer containing 3 nM plasma membrane permeabilizer ‘PMP’ (Seahorse Biosciences Inc.), 10 mM glutamate, 10 mM malate, 220 mM mannitol, 70 mM sucrose, 10 mM KH2PO4, 5 mM MgCl2, 1 mM EGTA, 0.2 % fatty acid-free bovine serum albumin (BSA), and 2 mM HEPES (pH 7.4 at 37 °C). […] The biguanides were allowed to accumulate for 30 min, then respiration was […] by the addition of 4 mM ADP. Rotenone was added (2 μM) at the end of the experiment.
as §1

Assay [1] concerns the target mouse heart mitochondrial membranes (complex I) (Mus musculus, UniProt P03888+P03899+Q91WD5+Q9DC70). Kind of assay: NADH:O2 oxidoreduction by mouse heart mitochondrial membranes. The format is biochemical. An outline of the steps:
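Spectrophotometric NADH oxidation (ε340–380 4.81 mM^−1 cm^−1) at 32 °C. Membranes at 5 μg mL^−1 in 10 mM Tris-HCl pH 7.4, 250 mM sucrose, 200 μM NADH, 0.15 mM cytochrome c; purified complex I at 0.5 μg mL^−1 in 20 mM Tris-HCl pH 7.2, 0.15 % asolectin/CHAPS, 200 μM each decylubiquinone and NADH. IC50 from dose-effect fit, Hill slope fixed at 1 for purified enzyme.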

Sequence of mouse heart mitochondrial membranes (complex I) (P03899 whole entry): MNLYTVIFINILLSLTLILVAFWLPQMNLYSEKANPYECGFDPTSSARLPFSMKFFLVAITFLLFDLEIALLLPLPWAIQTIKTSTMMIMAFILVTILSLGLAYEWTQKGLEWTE
Sequence of mouse heart mitochondrial membranes (complex I) (P03888 whole entry): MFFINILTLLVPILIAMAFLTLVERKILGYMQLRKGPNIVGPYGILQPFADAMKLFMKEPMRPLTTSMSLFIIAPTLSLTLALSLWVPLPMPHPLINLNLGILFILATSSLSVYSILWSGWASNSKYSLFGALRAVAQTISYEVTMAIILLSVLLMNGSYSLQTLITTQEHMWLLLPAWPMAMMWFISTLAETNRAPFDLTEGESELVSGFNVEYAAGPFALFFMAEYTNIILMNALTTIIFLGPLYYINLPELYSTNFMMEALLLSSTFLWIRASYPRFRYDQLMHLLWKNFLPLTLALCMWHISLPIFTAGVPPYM
Sequence of mouse heart mitochondrial membranes (complex I) (Q9DC70 36-224): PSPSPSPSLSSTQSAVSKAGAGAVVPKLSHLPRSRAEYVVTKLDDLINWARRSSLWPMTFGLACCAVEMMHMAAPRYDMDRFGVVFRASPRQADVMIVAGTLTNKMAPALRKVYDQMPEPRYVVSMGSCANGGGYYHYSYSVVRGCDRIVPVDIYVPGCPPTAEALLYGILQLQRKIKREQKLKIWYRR
Sequence of mouse heart mitochondrial membranes (complex I) (Q91WD5 34-463): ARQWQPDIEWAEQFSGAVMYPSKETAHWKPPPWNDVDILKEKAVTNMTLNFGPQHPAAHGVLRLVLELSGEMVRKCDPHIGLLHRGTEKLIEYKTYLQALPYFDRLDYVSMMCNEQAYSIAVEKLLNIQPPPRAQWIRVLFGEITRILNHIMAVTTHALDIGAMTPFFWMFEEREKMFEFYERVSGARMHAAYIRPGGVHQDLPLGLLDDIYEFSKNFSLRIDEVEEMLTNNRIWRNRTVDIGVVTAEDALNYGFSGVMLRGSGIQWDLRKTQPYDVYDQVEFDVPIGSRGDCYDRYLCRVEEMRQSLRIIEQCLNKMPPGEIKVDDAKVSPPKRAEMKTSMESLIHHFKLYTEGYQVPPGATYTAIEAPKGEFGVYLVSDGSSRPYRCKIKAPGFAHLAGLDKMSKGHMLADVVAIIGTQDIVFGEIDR

For the compound `NC(N)=NC(N)=NCCc1ccc(Cl)cc1` [compound 1, 2-[2-(4-chlorophenyl)ethyl]-1-(diaminomethylidene)guanidine], the “rotenone sensitive OCR after ADP stimulation, % of control, average” value in the assay with mouse heart mitochondria (average of replicates) is reported as 42.96 % of control; in the assay with permeabilized 143B cells (average of replicates) it was 10.59 % of control. Besides, the “rotenone sensitive OCR after ADP stimulation, average” value in the assay on mouse heart mitochondria (average of replicates) is given as 104.05; with permeabilized 143B cells (average of replicates) it was 25.27. The “rotenone sensitive OCR after ADP stimulation, % of control, individual replicates” value was 59.58 % of control and 56.94 % of control and 47.63 % of control and 43.78 % of control and 42.25 % of control and 48.37 % of control and 28.35 % of control and 16.80 % of control in the assay with mouse heart mitochondria (replicate 1-11); 28.33 % of control and 12.14 % of control and 11.88 % of control and 16.92 % of control and 4.82 % of control and 10.72 % of control and 0.16 % of control and 5.78 % of control and 8.84 % of control and 6.27 % of control in the assay on permeabilized 143B cells (replicate 1-11). The “rotenone sensitive OCR after ADP stimulation, individual replicates” value with mouse heart mitochondria (replicate 1-12) was 144.30 and 137.90 and 115.35 and 106.02 and 102.33 and 117.15 and 68.67 and 40.69; in the assay on permeabilized 143B cells (replicate 1-11) it was 67.63 and 28.97 and 28.36 and 40.38 and 11.50 and 25.59 and 0.37 and 13.80 and 21.11 and 14.98. Also, the “rotenone sensitive OCR after 6 hours of biguanide exposure, % control, average” value in the assay with 143B cells (143B cells, biguanide at IC50/10) was determined as 3.06 % control. In addition, the “rotenone sensitive OCR after 6 hours of biguanide exposure, average” value with 143B cells (143B cells, biguanide at IC50/10, OCR normalized to OCR immediately prior to biguanide addition) is listed as 3.59. In the assay with 143B cells (intact 143B cells, biguanide at IC50/10, monitored for 6 h), the “inhibition of rotenone-sensitive respiration (in words)” value is “inhibit respiration”. Besides, the “HillSlope (best fit value)” value in assay [1] (Prism variable slope fit) is given as -0.8311. The pIC50 in assay [1] (Prism variable slope fit, Bottom 0, Top 100, read-out: IC50 (best fit value)) is 3.33. Besides, the remaining activity at 130 µM in assay [1] (inhibitor 0.13 mM, read-out: average % (rate, % of no-inhibitor control)) came to 75.2%. The remaining activity at 250 µM in assay [1] (inhibitor 0.25 mM, read-out: average % (rate, % of no-inhibitor control)) amounted to 62.1%. For the same compound, the remaining activity at 500 µM in assay [1] (inhibitor 0.50 mM, read-out: average % (rate, % of no-inhibitor control)) was determined as 47.6%. Further, the remaining activity at 1000 µM in assay [1] (inhibitor 1.00 mM, read-out: average % (rate, % of no-inhibitor control)) worked out at 36.7%. Also, the remaining activity at 2500 µM in assay [1] (inhibitor 2.50 mM, read-out: average % (rate, % of no-inhibitor control)) was found to be 19.7%. Besides, the remaining activity at 5000 µM in assay [1] (inhibitor 5.00 mM, read-out: average % (rate, % of no-inhibitor control)) was 9.86%. Moreover, in assay [1] (inhibitor 10.00 mM, read-out: average % (rate, % of no-inhibitor control)), the remaining activity at 10000 µM was 8.63%. The “LogIC50 (best fit value)” value in assay [1] (log of IC50 in mM, Prism variable slope fit) is recorded as -0.3323.
